Target: Human PDE9 (PDE9A2) (Homo sapiens (Human), UniProt O76083)
Experiment: PDE9 IMAP fluorescence polarization (FP) inhibition assay
Assay type: biochemical
Conditions: apparent inhibition constant; human PDE9A2, FAM-cGMP substrate 50 nM, room temperature
Procedure: The activity of the compounds in accordance with the present invention as PDE9 inhibitors may be readily determined without undue experimentation using a fluorescence polarization (FP) methodology that is well known in the art (Huang, W., et al., J. Biomol Screen, 2002, 7:215).
In a typical experiment the PDE9 inhibitory activity of the compounds of the present invention was determined in accordance with the following experimental method.
Human PDE9 (PDE9A2, GenBank Accession No. NM_001001567), full length with N-terminal GST tag, was purchased from BPS Bioscience. The fluorescence polarization assay for cyclic nucleotide phosphodiesterases was performed using an IMAP® FP kit supplied by Molecular Devices, Sunnyvale, CA (product #R8139). IMAP® technology has been applied previously to phosphodiesterase assays (Huang, W., et al., J. Biomol Screen, 2002, 7:215). Assays were performed at room temperature in 384-well microtiter plates with an incubation volume of 20.2 μL. Solutions of test compounds were prepared in DMSO and serially diluted with DMSO to yield 8 μL of each of 10 solutions differing by 3-fold in concentration, at 32 serial dilutions per plate. 100% inhibition is determined using a known PDE9 inhibitor, such as 1-(2-chlorophenyl)-6-[(2R)-3,3,3-trifluoro-2-methylpropyl]-1,5-dihydro-4H-pyrazolo[3,4-d]pyrimidine-4-one (BAY 73-6691) (Wunder et al, Mol. Pharmacol., 2005, 68 (6): 1775-81), (6-[(3S,4S)-4-methyl-1-(pyrimidin-2-ylmethyl) pyrrolidin-3-yl]-1-(tetrahydro-2H-pyran-4-yl)-1,5-dihydro-4H-pyrazolo[3,4-d]pyrimidin-4-one (PF-04447943) (Wager et al., ACS Chemical Neuroscience, 2010, 1:435-449). 0% of inhibition is determined by using DMSO (1% final concentrations). A Labcyte Echo 555 (Labcyte, Sunnyvale, CA) is used to dispense 200 nL from each well of the titration plate to the 384 well assay plate. Human PDE9A2 membrane preps were diluted to 1 ng/ml. […] PDE9 enzyme mix and compounds were mixed and incubated at room temperature for 30 min. Following which, FAMcGMP substrate was added, shaken and incubated for an additional 60 min at room temperature. The final concentration of human PDE9 membrane preparations were 0.5 ng/ml. The final concentration of FAM-cGMP was 50 nM. After the incubation period, the enzymatic reaction was stopped by addition of binding solution (IMAP-FP, Molecular Devices, comprised of 80% Solution A, 20% Solution B and a 1:600 dilution of binding reagent) to each well. The plates were shaken then incubated at room temperature for 1 h prior to determining the fluorescence polarization (mP) using a Perkin Elmer En Vision™ plate reader (Waltham, MA).
Fluorescence polarization (mP) was calculated from the parallel(S) and perpendicular (P) fluorescence of each sample well and the analogous values for the median control well, containing only substrate (So and Po), using the following equation: […]
Dose-inhibition profiles for each compound were characterized by fitting the mP data to a four-parameter equation given below. The apparent inhibition constant (KI), the maximum inhibition at the low plateau relative to “100% Inhibition Control” (Imax; e.g. 1=>same as this control), the minimum inhibition at the high plateau relative to the “0% Inhibition Control” (Imin, e.g. 0=>same as the no drug control) and the Hill slope (nH) are determined by a non-linear least squares fitting of the mP values as a function of dose of the compound using an in-house software based on the procedures described by Mosser et al., JALA, 2003, 8:54-63, using the following equation: […]
An apparent (Km) for FAM-labeled […] of 150 nM was determined in separate experiments through simultaneous variation of substrate and selected drug concentrations.

Human PDE9 (PDE9A2), sequence (O76083 other isoform, or with tags, fused parts or gaps): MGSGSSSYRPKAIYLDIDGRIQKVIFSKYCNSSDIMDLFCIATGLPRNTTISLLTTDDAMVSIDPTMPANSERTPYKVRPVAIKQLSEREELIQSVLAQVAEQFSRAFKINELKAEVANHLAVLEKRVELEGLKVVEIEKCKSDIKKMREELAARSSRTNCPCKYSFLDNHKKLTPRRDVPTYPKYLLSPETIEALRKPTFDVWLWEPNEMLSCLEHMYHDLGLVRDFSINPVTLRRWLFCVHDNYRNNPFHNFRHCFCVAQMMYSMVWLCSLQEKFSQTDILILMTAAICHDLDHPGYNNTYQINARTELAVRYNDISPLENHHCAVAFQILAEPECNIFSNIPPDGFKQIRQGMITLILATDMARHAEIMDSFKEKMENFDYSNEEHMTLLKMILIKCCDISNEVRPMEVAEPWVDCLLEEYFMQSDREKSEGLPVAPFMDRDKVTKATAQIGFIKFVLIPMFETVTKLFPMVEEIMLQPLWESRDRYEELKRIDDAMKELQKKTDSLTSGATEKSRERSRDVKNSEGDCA

CCC(c1ncccn1)N(C)c1nc2c(c(C#N)nn2C(C)c2ccc(C3CC3)nc2)c(=O)[nH]1 (single isomer, unassigned) [Example 1, 1-(1-(6-Cyclopropylpyridin-3-yl)ethyl)-6-(methyl(1-(pyrimidin-2-yl)propyl)amino)-4-oxo-4,5-dihydro-1H-pyrazolo[3,4-d]pyrimidine-3-carbonitrile]
Ki: 3.2 nM

CCC(c1ncccn1)N(C)c1nc2c(c(C#N)nn2C(C)c2ccc(C3CC3)nc2)c(=O)[nH]1 (single isomer, unassigned) [Example 2, 1-(1-(6-Cyclopropylpyridin-3-yl)ethyl)-6-(methyl(1-(pyrimidin-2-yl)propyl)amino)-4-oxo-4,5-dihydro-1H-pyrazolo[3,4-d]pyrimidine-3-carbonitrile]
Ki: 5.24 nM

CCC(c1ncccn1)N(C)c1nc2c(c(C#N)nn2C(C)c2ccc(C3CC3)nc2)c(=O)[nH]1 (single isomer, unassigned) [Example 3, 1-(1-(6-Cyclopropylpyridin-3-yl)ethyl)-6-(methyl(1-(pyrimidin-2-yl)propyl)amino)-4-oxo-4,5-dihydro-1H-pyrazolo[3,4-d]pyrimidine-3-carbonitrile]
Ki: 1.82 nM

CCC(c1ncccn1)N(C)c1nc2c(c(C#N)nn2C(C)c2ccc(C3CC3)nc2)c(=O)[nH]1 (single isomer, unassigned) [Example 4, 1-(1-(6-Cyclopropylpyridin-3-yl)ethyl)-6-(methyl(1-(pyrimidin-2-yl)propyl)amino)-4-oxo-4,5-dihydro-1H-pyrazolo[3,4-d]pyrimidine-3-carbonitrile]
Ki: 0.03 nM

CC(c1ncccn1)N(C)c1nc2c(c(C#N)nn2C(C)c2ccc(C(F)(F)F)nc2)c(=O)[nH]1 (single isomer, unassigned) [Example 5, 6-[methyl(1-pyrimidin-2-ylethyl)amino]-4-oxo-1-[1-[6-(trifluoromethyl)-3-pyridyl]ethyl]-5H-pyrazolo[3,4-d]pyrimidine-3-carbonitrile]
Ki: 2.3 nM

CC(c1ncccn1)N(C)c1nc2c(c(C#N)nn2C(C)c2ccc(C(F)(F)F)nc2)c(=O)[nH]1 (single isomer, unassigned) [Example 6, 6-[methyl(1-pyrimidin-2-ylethyl)amino]-4-oxo-1-[1-[6-(trifluoromethyl)-3-pyridyl]ethyl]-5H-pyrazolo[3,4-d]pyrimidine-3-carbonitrile]
Ki: 6.21 nM

CC(c1ncccn1)N(C)c1nc2c(c(C#N)nn2C(C)c2ccc(C(F)(F)F)nc2)c(=O)[nH]1 (single isomer, unassigned) [Example 7, 6-[methyl(1-pyrimidin-2-ylethyl)amino]-4-oxo-1-[1-[6-(trifluoromethyl)-3-pyridyl]ethyl]-5H-pyrazolo[3,4-d]pyrimidine-3-carbonitrile]
Ki: 20.8 nM

CC(c1ncccn1)N(C)c1nc2c(c(C#N)nn2C(C)c2ccc(C(F)(F)F)nc2)c(=O)[nH]1 (single isomer, unassigned) [Example 8, 6-[methyl(1-pyrimidin-2-ylethyl)amino]-4-oxo-1-[1-[6-(trifluoromethyl)-3-pyridyl]ethyl]-5H-pyrazolo[3,4-d]pyrimidine-3-carbonitrile]
Ki: 243 nM

CCC(c1ncccn1)N(C)c1nc2c(c(C#N)nn2C(C)c2ccc(C(F)(F)F)nc2)c(=O)[nH]1 (single isomer, unassigned) [Example 9, 6-[methyl(1-pyrimidin-2-ylpropyl)amino]-4-oxo-1-[1-[6-(trifluoromethyl)-3-pyridyl]ethyl]-5H-pyrazolo[3,4-d]pyrimidine-3-carbonitrile]
Ki: 0.14 nM

CCC(c1ncccn1)N(C)c1nc2c(c(C#N)nn2C(C)c2ccc(C(F)(F)F)nc2)c(=O)[nH]1 (single isomer, unassigned) [Example 10, 6-[methyl(1-pyrimidin-2-ylpropyl)amino]-4-oxo-1-[1-[6-(trifluoromethyl)-3-pyridyl]ethyl]-5H-pyrazolo[3,4-d]pyrimidine-3-carbonitrile]
Ki: 9.98 nM

CCC(c1ncccn1)N(C)c1nc2c(c(C#N)nn2C(C)c2ccc(C(F)(F)F)nc2)c(=O)[nH]1 (single isomer, unassigned) [Example 11, 6-[methyl(1-pyrimidin-2-ylpropyl)amino]-4-oxo-1-[1-[6-(trifluoromethyl)-3-pyridyl]ethyl]-5H-pyrazolo[3,4-d]pyrimidine-3-carbonitrile]
Ki: 24.5 nM

CCC(c1ncccn1)N(C)c1nc2c(c(C#N)nn2C(C)c2ccc(C(F)(F)F)nc2)c(=O)[nH]1 (single isomer, unassigned) [Example 12, 6-[methyl(1-pyrimidin-2-ylpropyl)amino]-4-oxo-1-[1-[6-(trifluoromethyl)-3-pyridyl]ethyl]-5H-pyrazolo[3,4-d]pyrimidine-3-carbonitrile]
Ki: 39 nM

CCC(c1ncccn1)N(C)c1nc2c(c(C#N)nn2C(C)c2ccc(C(F)(F)F)cc2)c(=O)[nH]1 (single isomer, unassigned) [Example 13, 6-[methyl(1-pyrimidin-2-ylpropyl)amino]-4-oxo-1-[1-[4-(trifluoromethyl)phenyl]ethyl]-5H-pyrazolo[3,4-d]pyrimidine-3-carbonitrile]
Ki: 5.2 nM

CCC(c1ncccn1)N(C)c1nc2c(c(C#N)nn2C(C)c2ccc(C(F)(F)F)cc2)c(=O)[nH]1 (single isomer, unassigned) [Example 14, 6-[methyl(1-pyrimidin-2-ylpropyl)amino]-4-oxo-1-[1-[4-(trifluoromethyl)phenyl]ethyl]-5H-pyrazolo[3,4-d]pyrimidine-3-carbonitrile]
Ki: 0.01 nM

CCC(c1ncccn1)N(C)c1nc2c(c(C#N)nn2C(C)c2ccc(C(F)(F)F)cc2)c(=O)[nH]1 (single isomer, unassigned) [Example 15, 6-[methyl(1-pyrimidin-2-ylpropyl)amino]-4-oxo-1-[1-[4-(trifluoromethyl)phenyl]ethyl]-5H-pyrazolo[3,4-d]pyrimidine-3-carbonitrile]
Ki: 2.82 nM

CCC(c1ncccn1)N(C)c1nc2c(c(C#N)nn2C(C)c2ccc(C(F)(F)F)cc2)c(=O)[nH]1 (single isomer, unassigned) [Example 16, 6-[methyl(1-pyrimidin-2-ylpropyl)amino]-4-oxo-1-[1-[4-(trifluoromethyl)phenyl]ethyl]-5H-pyrazolo[3,4-d]pyrimidine-3-carbonitrile]
Ki: 11.1 nM

CCC(c1ncc(C(F)F)cn1)N(C)c1nc2c(c(C#N)nn2C(C)c2ccc(C(F)(F)F)nc2)c(=O)[nH]1 (single isomer, unassigned) [Example 17, 6-[1-[5-(difluoromethyl)pyrimidin-2-yl]propyl-methyl-amino]-4-oxo-1-[1-[6-(trifluoromethyl)-3-pyridyl]ethyl]-5H-pyrazolo[3,4-d]pyrimidine-3-carbonitrile]
Ki: 0.01 nM

CCC(c1ncc(C(F)F)cn1)N(C)c1nc2c(c(C#N)nn2C(C)c2ccc(C(F)(F)F)nc2)c(=O)[nH]1 (single isomer, unassigned) [Example 18, 6-[1-[5-(difluoromethyl)pyrimidin-2-yl]propyl-methyl-amino]-4-oxo-1-[1-[6-(trifluoromethyl)-3-pyridyl]ethyl]-5H-pyrazolo[3,4-d]pyrimidine-3-carbonitrile]
Ki: 2.07 nM
